Laboratory results: PubChem BioAssay (NCI)
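Protocol summary: plate cells (96-well), add compound at 5 concentrations, incubate 48 h, interpolate endpoints linearly. GI50 marks 50% less growth. TGI: total growth inhibition.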

What was measured:
Assay in all cases: inhibition of tumour cell growth, NCI panel, 48 h
[1] = system: PC-3 prostate
[2] = system: CAKI-1 renal
[3] = system: MDA-MB-231 breast
[4] = system: SF-295 CNS
[5] = system: NCI-H226 lung
[6] = system: U251 CNS
[7] = system: RPMI-8226 leukemia
[8] = system: SK-MEL-5 melanoma
[9] = system: HS 578T breast
[10] = system: MALME-3M melanoma
[11] = system: TK-10 renal
[12] = system: COLO 205 colon
[13] = system: HCT-116 colon
[14] = system: SF-268 CNS
[15] = system: LOX IMVI melanoma
[16] = system: NCI-H522 lung
[17] = system: CCRF-CEM leukemia
[18] = system: SK-OV-3 ovarian
[19] = system: BT-549 breast
[20] = system: RXF 393 renal
[21] = system: HOP-62 NSCLC
[22] = system: NCI/ADR-RES ovarian
[23] = system: DU-145 prostate
[24] = system: NCI-H23 lung
[25] = system: HOP-92 NSCLC
[26] = system: MCF7 breast
[27] = system: OVCAR-8 ovarian
[28] = system: T-47D breast
[29] = system: SK-MEL-28 melanoma
[30] = system: HT29 colon
[31] = system: ACHN renal
[32] = system: MDA-MB-435
[33] = system: OVCAR-4 ovarian
[34] = system: OVCAR-5 ovarian
[35] = system: KM12 colon
[36] = system: A498 renal
[37] = system: M14 melanoma
[38] = system: SNB-19 CNS
[39] = system: SR leukemia
[40] = system: OVCAR-3 ovarian
[41] = system: SW-620 colon
[42] = system: HCT-15 colon
[43] = system: UACC-62 melanoma
[44] = system: EKVX NSCLC
[45] = system: HCC-2998 colon
[46] = system: SNB-75 CNS
[47] = system: A549 NSCLC
[48] = system: K-562 leukemia
[49] = system: SF-539 CNS
[50] = system: SN12C renal
[51] = system: IGROV1 ovarian
[52] = system: 786-0 renal
[53] = system: MOLT-4 leukemia
[54] = system: SK-MEL-2 melanoma
[55] = system: UACC-257 melanoma
[56] = system: UO-31 renal
[57] = system: NCI-H460 lung
[58] = system: HL-60(TB) leukemia

COC(=O)CCC1=C(C)c2cc3[n-]c(cc4nc(cc5[n-]c(cc1n2)c(CCC(=O)OC)c5C)C=C4C)cc3C.[Cd+2]
GI50 [1]: 4.68 µM | TGI [1]: 29.3 µM | GI50 [2]: 12.4 µM | TGI [2]: 38.1 µM | GI50 [3]: 7.28 µM | TGI [3]: 31.4 µM | GI50 [4]: 17.5 µM | TGI [4]: 77 µM | GI50 [5]: 1.52 µM | TGI [5]: 4.73 µM | GI50 [6]: 2.82 µM | TGI [6]: 9.98 µM | GI50 [7]: 4.23 µM | TGI [7]: > 29.5 µM | GI50 [8]: 1.14 µM | TGI [8]: 2.83 µM | GI50 [9]: 5.73 µM | TGI [9]: > 100 µM | GI50 [10]: 2.55 µM | TGI [10]: 7.58 µM | GI50 [11]: 5.25 µM | TGI [11]: 13.6 µM | GI50 [12]: 2.64 µM | TGI [12]: 6.9 µM | GI50 [13]: 8.42 µM | TGI [13]: 25.3 µM | GI50 [14]: 3.14 µM | TGI [14]: 14.9 µM | GI50 [15]: 13.1 µM | TGI [15]: > 74.6 µM | GI50 [16]: 0.265 µM | TGI [16]: 0.754 µM | GI50 [17]: 3.34 µM | TGI [17]: > 56.4 µM | GI50 [18]: 7.4 µM | TGI [18]: 27.7 µM | GI50 [19]: 0.925 µM | TGI [19]: 2.39 µM | GI50 [20]: 2.88 µM | TGI [20]: 10.9 µM | GI50 [21]: 25.4 µM | TGI [21]: 76.2 µM | GI50 [22]: 39.8 µM | TGI [22]: > 100 µM | GI50 [23]: 4.5 µM | TGI [23]: 10.4 µM | GI50 [24]: 3.03 µM | TGI [24]: 16.7 µM | GI50 [25]: 16.7 µM | TGI [25]: 40 µM | GI50 [26]: 2.66 µM | TGI [26]: 11.9 µM | GI50 [27]: 9.95 µM | TGI [27]: 75.4 µM | GI50 [28]: 2.47 µM | TGI [28]: 6.95 µM | GI50 [29]: 4.69 µM | TGI [29]: 21.2 µM | GI50 [30]: 6.74 µM | TGI [30]: 26.3 µM | GI50 [31]: 16.2 µM | TGI [31]: 38.8 µM | GI50 [32]: 2.99 µM | TGI [32]: 19.6 µM | GI50 [33]: 2.35 µM | TGI [33]: 7.14 µM | GI50 [34]: 16.8 µM | TGI [34]: 39.7 µM | GI50 [35]: 3.46 µM | TGI [35]: 13.6 µM | GI50 [36]: 9.01 µM | TGI [36]: 26.3 µM | GI50 [37]: 5.54 µM | TGI [37]: 22.8 µM | GI50 [38]: 25.6 µM | TGI [38]: > 100 µM | GI50 [39]: 3.16 µM | TGI [39]: 8.91 µM | GI50 [40]: 1.73 µM | TGI [40]: 3.81 µM | GI50 [41]: 4.44 µM | TGI [41]: 18.4 µM | GI50 [42]: 11.8 µM | TGI [42]: > 55 µM | GI50 [43]: 2 µM | TGI [43]: 5.19 µM | GI50 [44]: 5.89 µM | TGI [44]: > 52.2 µM | GI50 [45]: 22.2 µM | TGI [45]: > 68.1 µM | GI50 [46]: 6.62 µM | TGI [46]: 33.8 µM | GI50 [47]: 4.24 µM | TGI [47]: 22.9 µM | GI50 [48]: 3.32 µM | TGI [48]: > 30.8 µM | GI50 [49]: 4.39 µM | TGI [49]: 15.2 µM | GI50 [50]: 19.1 µM | TGI [50]: 58 µM | GI50 [51]: 3.03 µM | TGI [51]: 8.82 µM | GI50 [52]: 11.3 µM | TGI [52]: 39.3 µM | GI50 [53]: 5.08 µM | TGI [53]: > 63.6 µM | GI50 [54]: 5.37 µM | TGI [54]: 19.1 µM | GI50 [55]: 4.06 µM | TGI [55]: 18.3 µM | GI50 [56]: 21.7 µM | TGI [56]: 65.7 µM | GI50 [57]: 0.868 µM | TGI [57]: 3.2 µM

COc1ccc(C(O)c2cc3c(N)c(C(=O)Nc4cccc(Br)c4)sc3nc2C)cc1 (stereo not given)
GI50 [1]: 0.204 µM | TGI [1]: > 100 µM | GI50 [2]: 0.141 µM | TGI [2]: > 32 µM | GI50 [3]: 0.104 µM | TGI [3]: 1.63 µM | GI50 [4]: 0.11 µM | TGI [4]: > 31.7 µM | GI50 [5]: 0.18 µM | TGI [5]: > 47 µM | GI50 [6]: 0.119 µM | TGI [6]: > 41.1 µM | GI50 [7]: 0.371 µM | TGI [7]: 33.6 µM | GI50 [8]: 0.123 µM | TGI [8]: 0.47 µM | GI50 [9]: 0.101 µM | TGI [9]: > 21.7 µM | GI50 [10]: 0.799 µM | TGI [10]: > 52.7 µM | GI50 [11]: 9.26 µM | TGI [11]: > 95.1 µM | GI50 [12]: 0.127 µM | TGI [12]: 0.773 µM | GI50 [13]: 0.107 µM | TGI [13]: 16.8 µM | GI50 [14]: 0.29 µM | TGI [14]: > 32.6 µM | GI50 [15]: 0.154 µM | TGI [15]: > 32.4 µM | GI50 [16]: 0.0814 µM | TGI [16]: 1.85 µM | GI50 [17]: 0.121 µM | TGI [17]: > 100 µM | GI50 [18]: 0.197 µM | TGI [18]: > 65.1 µM | GI50 [19]: 0.17 µM | TGI [19]: > 23.2 µM | GI50 [21]: 0.207 µM | TGI [21]: > 42.2 µM | GI50 [22]: 0.104 µM | TGI [22]: 4.87 µM | GI50 [23]: 0.128 µM | TGI [23]: 11.9 µM | GI50 [24]: 0.181 µM | TGI [24]: > 60.4 µM | GI50 [25]: 0.554 µM | TGI [25]: 21.3 µM | GI50 [26]: 0.125 µM | TGI [26]: > 58.4 µM | GI50 [27]: 0.139 µM | TGI [27]: > 55.6 µM | GI50 [28]: 22.5 µM | TGI [28]: > 100 µM | GI50 [29]: 22.3 µM | TGI [29]: > 100 µM | GI50 [30]: 0.109 µM | GI50 [31]: 0.23 µM | TGI [31]: > 46.2 µM | GI50 [32]: 0.0202 µM | TGI [32]: 0.05 µM | GI50 [33]: 0.224 µM | TGI [33]: > 84.2 µM | GI50 [34]: 0.216 µM | TGI [34]: > 100 µM | GI50 [35]: 0.117 µM | GI50 [36]: 0.0536 µM | TGI [36]: 0.231 µM | GI50 [37]: 0.0318 µM | TGI [37]: 14.1 µM | GI50 [38]: 0.159 µM | TGI [38]: > 100 µM | GI50 [39]: 0.0979 µM | TGI [39]: > 32.7 µM | GI50 [40]: 0.0949 µM | TGI [40]: 0.322 µM | GI50 [41]: 0.126 µM | TGI [41]: > 100 µM | GI50 [42]: 0.121 µM | TGI [42]: > 43 µM | GI50 [43]: 0.309 µM | TGI [43]: > 38.6 µM | GI50 [44]: 0.197 µM | TGI [44]: > 100 µM | GI50 [45]: 0.121 µM | TGI [45]: 15.5 µM | GI50 [46]: 0.0693 µM | GI50 [47]: 0.14 µM | TGI [47]: > 100 µM | GI50 [48]: 0.107 µM | TGI [48]: > 100 µM | GI50 [49]: 0.0248 µM | TGI [49]: 0.0833 µM | GI50 [50]: 0.21 µM | TGI [50]: > 31.9 µM | GI50 [51]: 0.231 µM | TGI [51]: > 100 µM | GI50 [58]: 0.085 µM | TGI [58]: 0.242 µM | GI50 [52]: 0.225 µM | TGI [52]: > 39.4 µM | GI50 [53]: 0.14 µM | TGI [53]: > 52.8 µM | GI50 [54]: 0.572 µM | TGI [54]: > 21.9 µM | GI50 [55]: 6.4 µM | TGI [55]: > 50.4 µM | GI50 [56]: 0.271 µM | TGI [56]: > 31.3 µM | GI50 [57]: 0.109 µM | TGI [57]: 3.61 µM
